Assay results from patent US12083084B2, “Method for enhancing energy production and metabolism in cells” (REPLICON HEALTH OY, priority 2013, dated 2024).
Entries after “also recorded” stand apart in the source; their conditions may differ.

Legend:
[1] = system: human primary hepatocytes; experiment: NAD+/NADH quantification in human hepatocytes; assay type: cell-based; set-up: NADtot / NADH / NAD+ / NAD+/NADH: unit not given here; settings: 48 h + 3 h
Excerpt: For the measurement of total NAD (NADtot=NADH+NAD^+) and NAD^+/NADH ratio, a NAD^+/NADH Quantification kit (MAK037) from Sigma was used. NAD functions as an electron carrier, fluctuating between the oxidized (NAD^+) and reduced (NADH) forms. In addition, NAD^+ plays critical roles in ADP-ribosylation reaction and as a substrate for sirtuins. According to the Sigma instruction, the NAD^+/NADH Quantification kit (Sigma) provides a convenient tool for sensitive detection of NAD, NADH and their ratio without requirement to purify them from samples. Important to notice is that the kit measures NADH and NAD^+ in whole cell including all cell organelles and compartments. Mitochondrial matrix is clearly dominant NADH producer from TCA and beta oxidation (consuming naturally the same amount of NAD^+ in redox reactions). Importantly, formed NADH is also typically oxidized into NAD^+ in the matrix by Complex I in ETC. As is well known anaerobic carbohydrate metabolism, i.e. glycolysis, in cytosol also consumes NAD^+ and produces NADH.
Cell culture in NADH-tests was like in Example 1.1. The change of the medium with DGAcs was conducted at 0 h, 24 h and 48 h. NAD measurements were made at 48+3 h in all cases. For CDP also HPA was tested, and for DOO no new nutrition at 48 h was added, i.e. test was conducted in fasting conditions.

human hepatocytes = experiment: Gene expression from hepatocytes lysates; assay type: cell-based; settings: N = 5
rat cortical neurons = experiment: LDH viability/cytotoxicity of rat cortical neurons (calorie restriction, high doses); assay type: cell-based
Description: Cell culture. Cortical neurons were dissected from P1 rats and cultured in 96-well plates up to 7 days in the medium containing: neurobasal medium, 1.5% B27 supplement, 1 mM L-glutamine, penicillin/streptomycin.
Treatment of cells with DGAcs was done in two different ways. In all studies the total cultivation time was 7 days (7th day in vitro=7 DIV). In the first study a clear element of calorie restriction (CR) was built in to the standard model provided by the CRO. The other 24 hour pretreatment was without CR (more info in examples 2.1 and 2.2 below). Separately also exceptionally high doses of DGAcs were administered to neurons. […] (Effective dose was […]).
Cell Viability/Cytotoxicity. Cell Viability was Detected by LDH Tests Like in Examples 1.1-1.2.
Cell treatment: concentration of DGAcs (10, 50 and 100 μg/ml) was added into cell culture medium at 4 DIV. After 24 h (at 5 DIV) 25% of medium was changed to fresh containing 1.5× concentration of DGAcs. Same treatment (change 25% with 1.5× concentration) was repeated at 6 DIV. The cells were transferred into Mg^2+-free Locke's buffer containing the same concentrations of DGAcs immediately before imaging experiments (at 7 DIV). For controls the same amount of medium was changed without addition of DGAcs.
Cell treatment according to the protocol renewed only 25% of the medium during 5 DIV and 6 DIV, meaning that neurons received only very small amounts of new nutrition, i.e. experienced calorie restrictions (CR). […] This same phenomenon of increased cell death in CR was already seen with human hepatocytes in previous examples. Likely explanation is the same: DGAcs administration increases metabolic activity in neurons and/or their (aerobic) ATP production and consumption, which leads to enhanced cell cycle control and programmed cell death (apoptosis) in nutritional scarcity. […] Viability loss compared to zero control was highest and statistically significant in 10 μg/ml group but also all other groups experienced loss of viability.

[2] = 3 week ad libitum feeding study, food intake and body weight; assay type: in vivo, rat
Description: In this in vivo experiment 45 rats (24 males and 21 females) were tested in Finnish National Institute of Health. Used DGAcs doses were high compared to human trials ranging between 100-1000 mg/kg/day, but on the other hand the metabolism of rats is much faster than in humans and thus the effective doses for rats can be clearly higher than for humans. In some experiments even 20-50 times higher compared to humans in vivo have been reported in literature. Thus this experiment can give indication also for human use. The animals were kept under controlled conditions, with the temperature set from 20° C. to 21° C., the humidity at 47.6%, and a 12-hour light-dark cycle (lights on at 6:00 am). In this ad libitum feeding study the DGAcs was mixed in the diet for the whole experimental period (3 weeks). The animals were divided into 4 groups, which received 0 (zero control), 2, 10, and 20 g glycerate per kilogram of diet. The average DGAcs consumption was 0.1, 0.5, and 1.0 g/kg per day, respectively, as calculated based on weekly food consumption. The animals experimented were 3 to 5 months old AA rats. The animals were given water and a standard laboratory feed (SDS RM1) ad libitum for 3 weeks. In the experiment the development of weights of rats receiving DGAcs, and the control were measured, as well as the food consumption during the experiment and change in the body weight. Males and females were separated resulting altogether to 8 groups with 5-6 animals in each.

[3] = donor alpha, new nutrition at 48 h, N = 5, 1.4 (μM)
[4] = donor alpha, new nutrition at 48 h, N = 5, 14 (μM)
[5] = donor one, new nutrition at 48 h, N = 5, 1.4 (μM)
[6] = donor one, new nutrition at 48 h, N = 5, 14 (μM)
[7] = donor three, no new nutrition at 48 h (fasting), N = 3, 1.4 (μM)
[8] = donor three, no new nutrition at 48 h (fasting), N = 3, 14 (μM)

O.O.O=C([O-])[C@H](O)CO.O=C([O-])[C@H](O)CO.[Ca+2] [DGAcs, D-glyceric acid, calcium salt dehydrate]
Change in NAD+/NADH vs. Control [1, 3]: −53%
NAD+ [1, 3]: 0.009
NAD+/NADH [1, 3]: 0.040
NADH [1, 3]: 0.222
NADtot [1, 3]: 0.231
Change in NAD+/NADH vs. Control [1, 4]: −62%
NAD+ [1, 4]: 0.007
NAD+/NADH [1, 4]: 0.032
NADH [1, 4]: 0.225
NADtot [1, 4]: 0.232
Change in NAD+/NADH vs. Control [1, 5]: −39.3%
NAD+ [1, 5]: 0.040
NAD+/NADH [1, 5]: 0.139
NADH [1, 5]: 0.289
NADtot [1, 5]: 0.329
Change in NAD+/NADH vs. Control [1, 6]: −87.2%
NAD+ [1, 6]: 0.009
NAD+/NADH [1, 6]: 0.029
NADH [1, 6]: 0.294
NADtot [1, 6]: 0.302
Change in NAD+/NADH vs. Control [1, 7]: −64.6%
NAD+ [1, 7]: 0.004
NAD+/NADH [1, 7]: 0.017
NADH [1, 7]: 0.239
NADtot [1, 7]: 0.243
Change in NAD+/NADH vs. Control [1, 8]: −24.0%
NAD+ [1, 8]: 0.009
NAD+/NADH [1, 8]: 0.037
NADH [1, 8]: 0.232
NADtot [1, 8]: 0.240
CYP2B6 gene expression deviation from control (human hepatocytes; donor alpha, 1.4 (μM)): 38%
PGC-1a gene expression deviation from control (human hepatocytes; donor alpha, 1.4 (μM)): 5%
CYP2B6 gene expression deviation from control (human hepatocytes; donor alpha, 14 (μM)): 45%
PGC-1a gene expression deviation from control (human hepatocytes; donor alpha, 14 (μM)): 20%
CYP2B6 gene expression deviation from control (human hepatocytes; donor one, 1.4 (μM)): 8%
HO-1 gene expression deviation from control (human hepatocytes; donor one, 1.4 (μM)): 54%
PGC-1a gene expression deviation from control (human hepatocytes; donor one, 1.4 (μM)): 12%
CYP2B6 gene expression deviation from control (human hepatocytes; donor one, 14 (μM)): 3%
HO-1 gene expression deviation from control (human hepatocytes; donor one, 14 (μM)): 50%
PGC-1a gene expression deviation from control (human hepatocytes; donor one, 14 (μM)): 42%
CYP2B6 gene expression deviation from control (human hepatocytes; donor three, 1.4 (μM)): 29%
HO-1 gene expression deviation from control (human hepatocytes; donor three, 1.4 (μM)): 83%
PGC-1a gene expression deviation from control (human hepatocytes; donor three, 1.4 (μM)): 45%
CYP2B6 gene expression deviation from control (human hepatocytes; donor three, 14 (μM)): 49%
HO-1 gene expression deviation from control (human hepatocytes; donor three, 14 (μM)): 21%
PGC-1a gene expression deviation from control (human hepatocytes; donor three, 14 (μM)): 1%
neuronal viability (LDH) under calorie restriction vs zero control (rat cortical neurons; 10, 50 and 100 μg/ml from 4 DIV, only 25% of medium renewed at 5 and 6 DIV, FIG. 13): dose dependent viability loss; also recorded: confirmed statistically significantly
toxicity to neurons (rat cortical neurons; 40-200 times the effective treatment dose): No toxicity was observed
Effective dose (rat cortical neurons; rat cortical neurons): 10-50 μg/m
increase in food intake ([2]; DGAcs groups, males and females): 2.5-4%
average weight change compared to control ([2]; female rats, 3 weeks): +0.2%
average weight increasing compared to control ([2]; female rats, 3 weeks): 0.6 grams
food intake higher compared to the control ([2]; female rats, DGAcs groups combined, 3 weeks): 2.5%
food intake higher compared to the control ([2]; male rats, DGAcs groups combined (0.1, 0.5, 1.0 g/kg per day), 3 weeks): 3.7%
amount of unexplained energy consumption ([2]; males): roughly 5%
